According to patent US20240108644A1, “TUMOR IMMUNOTHERAPY” (The Trustees of Columbia University in the City of New York, priority 2021, published 2024):
Entries after “also recorded” stand apart in the source; their conditions may differ.

How the values were obtained:
[1] = tested on: MC38 syngeneic tumor model; test: MC38 tumor growth and survival in immune-competent C57BL/6J mice; format: in vivo
Procedure: 10 C57BL/6J mice per treatment arm were implanted with subcutaneous MC38 tumor cells. Treatment was initiated after 12 days of initial tumor growth, at which point mice were monitored for tumor volume until exceeding 1000 mm^3 or ulceration exceeding a diameter of 5 mm. […] Floxuridine and triapine were IP daily from day 12-18 at 1 mg/kg and 5 mg/kg, respectively, also reflecting 1/10th the standard murine dose. Mice receiving anti-PD-1 were administered anti-PD-1 IP on days 12, 15, and 18.

[2] = tested on: TI-Treg MR proteins (17-MR protein signature); test: PLATE-Seq perturbational RNA-seq of TI-Tregs with VIPER / OncoTreat analysis; format: cell-based, human; settings: for patient-by-patient inhibition of TI-Treg vs P-Treg MR activity (OncoTreat): individual TI- vs. P-Treg signatures of all 36 patients
Procedure: (§1) To reduce study complexity and cost, the inventors first assessed the effect of a library of 1,554 FDA-approved and investigational compounds on human-derived P-Treg viability at a single, relatively large concentration (5 μM). For this screen, human P-Tregs were flow sorted, expanded ex vivo, and drug treated in a 96-well plate format (FIG. 6A). The inventors then selected 195 compounds that inhibited P-Treg viability ≥60% (FIG. 6B). To further reduce the number of candidate drugs, the inventors then generated 10-point drug response curves to identify the 48 h EC20 concentration of the 195 compounds, then selected a repertoire of 86 compounds with the lowest EC20 for efficient perturbational profile analysis in a 96-well format, when considering inclusion of vehicle controls (DMSO). As previously reported (Bush et al., 2017; Douglass et al., 2020), the 48 h EC20 (maximum sublethal) concentration was selected to effectively assess the 24 h drug mechanism of action, while reducing confounding effects arising from activation of cell stress or death pathways. Finally, the EC20 concentration of each compound was then used to perturb TI-Tregs flow-sorted from a chemo-naïve human clear cell carcinoma specimen and expanded ex vivo, into 96-well plates, followed by RNA-seq profiling using the fully automated PLATE-Seq technology (Bush et al., 2017; Douglass et al., 2020). Viability, as well as perturbational RNA-seq profiles of TI-Tregs were collected (FIGS. 6C-D). By using the differential protein activity signature in drug- vs. vehicle control-treated TI-Tregs, we identified the compounds capable of inducing the most statistically significant inactivation of TI-Treg-specific MR proteins (OncoTreat algorithm (Alvarez et al., 2018). From this analysis, 32 compounds were nominated as statistically significant inhibitors of the 17-MR protein signature (FIG. 7B), seven of which preferentially depleted TI-Treg vs. P-Treg viability in vitro (FIGS. 6C-D), and which were also found to inhibit patient-by-patient TI-Treg vs P-Treg MRs across all tumor types and nearly all patients (FIG. 6E).
Wells of drug-treated Tregs were RNA-Sequenced and each normalized with viperSignature against the internal DMSO-control wells on the same PLATE. VIPER was run on the normalized gene expression using the T-cell ARACNe network inferred from sorted bulk-RNA-Sequencing clinical data. Drugs were ranked on their overall inversion across patients of the 17-gene Master Regulator signature previously identified and validated by CRISPR (FIG. 7B), as well as on their patient-by-patient inversion of Tumor-Treg vs Peripheral-Treg protein activity signature by OncoTreat (FIG. 6E).

[3] = tested on: human tumor Tregs (TI-Tregs); test: viability of sorted tumor Tregs vs peripheral Tregs at peripheral-Treg EC20 dose; format: cell-based; settings: at peripheral-Treg EC20 (IC20) dose; TI-Tregs from clear cell renal carcinoma expanded ex vivo
Procedure: as §1, with “By using the differential protein activity signature in drug- vs. vehicle control-treated TI-Tregs, we identified the compounds capable of inducing the most statistically significant inactivation of TI-Treg-specific MR proteins (OncoTreat algorithm (Alvarez et al., 2018). From this analysis, 32 compounds were nominated as statistically significant inhibitors of the 17-MR protein signature (FIG. 7B), seven of which preferentially depleted TI-Treg vs. P-Treg viability in vitro (FIGS. 6C-D), and which were also found to inhibit patient-by-patient TI-Treg vs P-Treg MRs across all tumor types and nearly all patients (FIG. 6E).” left out

[4] = tested on: TRC3 cluster Tregs (enriched for TI-Treg MRs); test: scRNA-seq of MC38 tumor- and spleen-derived Tregs after gemcitabine; format: in vivo, FoxP3Yfp-Cre mice; settings: 24 hours after single 12 mg/kg dose
MC38 tumors = test: MC38 tumor growth and survival in immune-deficient NSG mice; format: in vivo
Procedure: To assess whether low-dose gemcitabine effects were immune-mediated, we performed parallel dose titrations in immune-competent C57BL/6J mice and severely immune-deficient NSG (NOD.Cg-Prkdc^scid Il2rg^tm1Wj1/SzJ) mice lacking both innate and adaptive immunity.
To test whether immune-dependent activity could be observed in this range of concentrations, we dosed cohorts of mice with 1-10 mg/kg gemcitabine, with an additional cohort of C57BL/6J mice receiving anti-PD-1 in combination.
To further assess the doses at which gemcitabine inhibits tumor growth and the immune-mediated effects of gemcitabine, the inventors performed parallel dose titrations of Gem in immune-competent C57BL/6J mice and immune-deficient NSG (NOD.Cg-Prkdc^scid Il2rg^tm1Wjl/SzJ) mice, administering doses ranging from 0.12 mg/kg up to 120 mg/kg as shown in FIGS. 4D-E. At least 5 mice were treated per treatment arm. Doses were administered IP on days 12, 15, and 18, and treatment response was assessed by and Kaplan-Meier test (FIG. 8E).

SMILES	tumor growth inhibition ([1]; floxuridine 1 mg/kg IP daily day 12-18, alone or with anti-PD-1)	patient-by-patient inhibition of TI-Treg vs P-Treg MR activity (OncoTreat) [2]	differential TI-Treg vs. P-Treg viability reduction (toxicity) [3]	efficacy in dose titration ([1]; between 12 mg/kg and 1.2 mg/kg, C57BL/6J)	dose range found to be immunogenic ([1]; dosed Q3D) [mg/kg]	advantage in C57BL/6 vs NSG mice ([1]; gemcitabine 1.2 mg/kg, p=0.09)	survival C57BL/6J vs. NSG ([1]; gemcitabine 10 mg/kg, p=0.253)	tumor growth kinetics vs vehicle ([1]; gemcitabine 12 mg/kg IP days 12, 15, 18, late stage MC38, p=0.003)	survival vs vehicle ([1]; gemcitabine 12 mg/kg IP days 12, 15, 18, late stage MC38, p=0.006)	tumor growth relative to vehicle control ([1]; gemcitabine 120 mg/kg, C57BL/6J, p<0.001 by Cox regression)	difference between C57BL/6J and NSG strains ([1]; gemcitabine 120 mg/kg, p=0.19)	TRC1 occupancy [4]	change of TRC3 occupancy in spleen population ([4]; spleen)	TRC3 cluster frequency among TI-Tregs ([4]; tumor, vehicle 30.1%, p=1.51e-20) [%]	inhibition (down-regulation) of the 17-MR TI-Treg protein activity signature ([2]; TI-Tregs treated at EC20, 24 h, drug vs DMSO, VIPER protein activity)	efficacy in dose titration (MC38 tumors; between 12 mg/kg and 1.2 mg/kg, NSG)	activity in NSG mice (MC38 tumors; gemcitabine 3 mg/kg, p=0.84)	tumor growth relative to vehicle control (MC38 tumors; gemcitabine 120 mg/kg, NSG, p<0.001 by Cox regression)	tumor growth inhibition ([1]; triapine 5 mg/kg IP daily day 12-18, alone or with anti-PD-1)
O=c1[nH]c(=O)n([C@H]2C[C@H](O)[C@@H](CO)O2)cc1F [floxuridine]	gemcitabine was the only treatment found to significantly inhibit tumor growth	among the seven most significant TI-Treg MR activity inhibitors	among the top 6 inducing the most significant differential TI- vs. P-Treg viability reduction																
Nc1ccn([C@@H]2O[C@H](CO)[C@@H](O)C2(F)F)c(=O)n1 [gemcitabine]		among the seven most significant TI-Treg MR activity inhibitors	preferential cytotoxic capacity against TI-Tregs; also recorded: preferentially toxic to TI-Tregs; also recorded: among the top 6 inducing the most significant differential TI- vs. P-Treg viability reduction	efficacy was lost	3 to 10	trending but non-significant advantage	trending survival advantage	significantly inhibit tumor growth; also recorded: significant reduction in growth kinetics	prolongation of survival	inhibited tumor growth	no significant difference	proportional increase	virtually no change	14.9	inhibits transcriptional activity of TI-Treg MRs	efficacy was lost	lack any activity	inhibited tumor growth	
NC(=S)N/N=C/c1ncccc1N [triapine]		among the seven most significant TI-Treg MR activity inhibitors	among the top 6 inducing the most significant differential TI- vs. P-Treg viability reduction																gemcitabine was the only treatment found to significantly inhibit tumor growth
